Assay results reported in US11098010B2 (priority 2017, dated 2021).
pEC50: −log10 of the molar value. Structures can show the parent of a compound that is named as a salt. Where two headings read alike, the source gives them in different places.

System: HBV rcDNA in HepDE19 cells
Assay: HepDE19 assay with bDNA quantitation of HBV rcDNA
Assay type: cell-based, hepatitis B virus (HBV)
Protocol: HepDE19 Assay with bDNA Quantitation of HBV rcDNA:
HepDE19 cell culture system is a HepG2 (human hepatocarcinoma) derived cell line that supports HBV DNA replication and cccDNA formation in a tetracycline (Tet)-regulated manner and produces HBV rcDNA and a detectable reporter molecule dependent on the production and maintenance of cccDNA (Guo, et al., 2007, J. Virol. 81:12472-12484).
HepDE19 (50,000 cells/well) were plated in 96-well collagen-coated tissue-culture treated microtiter plates in DMEM/F12 medium supplemented with 10% fetal bovine serum, 1% penicillin-streptomycin and 1 μg/mL tetracycline and incubated in a humidified incubator at 37° C. and 5% CO2 overnight. Next day, the cells were switched to fresh medium without tetracycline and incubated for 4 hours at 37° C. and 5% CO2. The cells were treated with fresh Tet-free medium with compounds at concentrations starting at 25 μM and a serial, ½ log, 8-point, titration series in duplicate. The final DMSO concentration in the assay was 0.5%. The plates were incubated for 7 days in a humidified incubator at 37° C. and 5% CO2. Following a 7 day-incubation, the level of rcDNA present in the inhibitor-treated wells was measured using a Quantigene 2.0 bDNA assay kit (Affymetrix, Santa Clara, Calif.) with HBV specific custom probe set and manufacturers instructions. Concurrently, the effect of compounds on cell viability was assessed using replicate plates, plated at a density of 5,000 cells/well and incubated for 4 days, to determine the ATP content as a measure of cell viability using the cell-titer glo reagent (CTG; Promega Corporation, Madison, Wis.) as per manufacturer's instructions. The plates were read using a Victor luminescence plate reader (PerkinElmer Model 1420 Multilabel counter) and the relative luminescence units (RLU) data generated from each well was calculated as % inhibition of the untreated control wells and analyzed using XL-Fit module in Microsoft Excel to determine EC50 and EC90 (bDNA) and CC50 (CTG) values using a 4-parameter curve fitting algorithm.
Representative compounds of the invention were tested for their abilities to inhibit formation of relaxed circular DNA (rcDNA) in a HepDE19 assay, as described elsewhere herein.

[1] = Hepatitis B virus, HepDE19, 168 h, read-out: DE-19 bDNA EC50 (μM), HepDE19 cells, inhibition of rcDNA formation, 7 day incubation, top concentration 25 μM
[2] = Hepatitis B virus, HepDE19, 168 h, HepDE19 cells, inhibition of rcDNA formation, 7 day incubation, top concentration 25 μM; read-out: DE-19 bDNA EC50
[3] = HepDE19 cells, inhibition of rcDNA formation, 7 day incubation, top concentration 25 μM; read-out: DE-19 bDNA EC50
[4] = read-out: DE-19 bDNA EC50; HepDE19 cells, inhibition of rcDNA formation, 7 day incubation, top concentration 25 μM

Row | Structure (SMILES) | EC50 [1] | also measured
1 | COC(=O)NC1CSc2c(C(=O)Nc3ccc(F)c(Cl)c3)cccc21 (stereo not shown) [Compound 37, O-Methyl, N-(7-((3-chloro-4-fluorophenyl)carbamoyl)-2,3-dihydrobenzo[b]thiophen-3-yl) carbamate] | 0.95 µM | 
2 | CN1C(=O)CC[C@H]1COC(=O)N[C@H]1CCc2c(C(=O)Nc3ccc(F)c(Cl)c3)ccc(F)c21 [Compound 39] |  | pEC50 [2]: 6.22
3 | Cc1cc(NC(=O)c2ccc(F)c3c2CC[C@@H]3NC(=O)OCc2ccccn2)ccc1F [Compound 40, O-Pyridin-2-ylmethyl, N—(S)-(7-fluoro-4-((4-fluoro-3-methylphenyl)carbamoyl)-2,3-dihydro-1H-inden-1-yl) carbamate] |  | pEC50 [2]: 6.21
4 | O=C(N[C@H]1CCc2c(C(=O)Nc3ccc(F)c(Cl)c3)ccc(F)c21)OCc1cn2ccccc2n1 [Compound 41, O-Imidazo[1,2-a]pyridin-2-ylmethyl, N—(S)-(4-((3-chloro-4-fluorophenyl)carbamoyl)-7-fluoro-2,3-dihydro-1H-inden-1-yl) carbamate] |  | pEC50 [2]: 6.80
5 | O=C(N[C@H]1CCc2c(C(=O)Nc3ccc(F)c(Cl)c3)ccc(F)c21)OCc1cccc(N2CCOCC2)n1 [Compound 42, O-(6-Morpholinopyridin-2-yl)methyl, N—(S)-(4-((3-chloro-4-fluorophenyl)carbamoyl)-7-fluoro-2,3-dihydro-1H-inden-1-yl) carbamate] | 0.27 µM | 
6 | CN1C(=O)CC[C@@H]1COC(=O)N[C@H]1CCc2c(C(=O)Nc3ccc(F)c(Cl)c3)ccc(F)c21 [Compound 43] | 0.54 µM | 
7 | COc1cccc(COC(=O)N[C@H]2CCc3c(C(=O)Nc4ccc(F)c(Cl)c4)ccc(F)c32)n1 [Compound 44, O-(6-Methoxypyridin-2-yl)methyl, N—(S)-(4-((3-chloro-4-fluorophenyl)carbamoyl)-7-fluoro-2,3-dihydro-1H-inden-1-yl) carbamate] | 0.38 µM | 
8 | O=C(Nc1ccc(F)c(Cl)c1)c1ccc(F)c2c1CC[C@@H]2Nc1ncccn1 [Compound 45, (S)—N-(3-chloro-4-fluorophenyl)-7-fluoro-1-(pyrimidin-2-ylamino)-2,3-dihydro-1H-indene-4-carboxamide] | 0.25 µM | 
9 | COC(=O)N[C@@H]1c2cccc(C(=O)Nc3ccc(F)c(Cl)c3)c2C[C@H]1O [Compound 46, O-Methyl, N-((1R,2R)-4-((3-chloro-4-fluorophenyl)carbamoyl)-2-hydroxy-2,3-dihydro-1H-inden-1-yl) carbamate] | 0.7 µM | 
10 | CNC(=O)N[C@@H]1c2cccc(C(=O)Nc3ccc(F)c(Cl)c3)c2C[C@H]1O [Compound 47, (1R,2R)—N-(3-Chloro-4-fluorophenyl)-2-hydroxy-1-(3-methylureido)-2,3-dihydro-1H-indene-4-carboxamide] | 11 µM | 
11 | CN(C)c1cccc(COC(=O)N[C@H]2CCc3c(C(=O)Nc4ccc(F)c(Cl)c4)ccc(F)c32)n1 [Compound 48, O-(6-(Dimethylamino)pyridin-2-yl)methyl, N—(S)-(4-((3-chloro-4-fluorophenyl)carbamoyl)-7-fluoro-2,3-dihydro-1H-inden-1-yl) carbamate] | 0.16 µM | 
12 | COc1cnc(N[C@H]2CCc3c(C(=O)Nc4ccc(F)c(Cl)c4)ccc(F)c32)nc1 [Compound 49, (S)—N-(3-Chloro-4-fluorophenyl)-7-fluoro-1-((5-methoxypyrimidin-2-yl)amino)-2,3-dihydro-1H-indene-4-carboxamide] | 0.17 µM | 
13 | O=C(Nc1ccc(F)c(Cl)c1)c1ccc(F)c2c1CC[C@@H]2Nc1nccc(-c2ccccn2)n1 [Compound 50, (S)—N-(3-Chloro-4-fluorophenyl)-7-fluoro-1-((4-(pyridin-2-yl)pyrimidin-2-yl)amino)-2,3-dihydro-1H-indene-4-carboxamide] | 1 µM | 
14 | O=C(N[C@@H]1c2cccc(C(=O)Nc3ccc(F)c(Cl)c3)c2C[C@H]1O)OCc1ccccn1 [Compound 51, O-Pyridin-2-ylmethyl, N-((1R,2R)-4-((3-chloro-4-fluorophenyl)carbamoyl)-2-hydroxy-2,3-dihydro-1H-inden-1-yl) carbamate] |  | pEC50 [2]: 6.06
15 | COC(=O)NC1c2cccc(C(=O)Nc3ccc(F)c(F)c3)c2CC1O (stereo not shown) [Compound 52, O-methyl, N-(4-((3,4-difluorophenyl)carbamoyl)-2-hydroxy-2,3-dihydro-1H-inden-1-yl) carbamate] |  | pEC50 [3]: 4.72
16 | CNC(=O)NC1c2cccc(C(=O)Nc3ccc(F)c(F)c3)c2CC1O (stereo not shown) [Compound 53, N-(3,4-difluorophenyl)-2-hydroxy-1-(3-methylureido)-2,3-dihydro-1H-indene-4-carboxamide] |  | pEC50 [2]: < 4.60
17 | CC(C)(C)OC(=O)N1CC(F)(F)CC1COC(=O)N[C@H]1CCc2c(C(=O)Nc3ccc(F)c(Cl)c3)ccc(F)c21 (stereo partly drawn) [Compound 54, tert-Butyl 2-(((((S)-4-((3-chloro-4-fluorophenyl)carbamoyl)-7-fluoro-2,3-dihydro-1H-inden-1-yl)carbamoyl)oxy)methyl)-4,4-difluoropyrrolidine-1-carboxylate] | 0.99 µM | 
18 | COC(=O)NC1CSc2c(C(=O)Nc3ccc(F)c(F)c3)ccc(F)c21 (stereo not shown) [Compound 55, O-Methyl, N-(7-((3,4-difluorophenyl)carbamoyl)-4-fluoro-2,3-dihydrobenzo[b]thiophen-3-yl) carbamate] |  | pEC50 [4]: 5.92
19 | O=C(N[C@H]1CCc2c(C(=O)Nc3ccc(F)c(Cl)c3)ccc(F)c21)OCC1CC(F)(F)CN1 (stereo partly drawn) [Compound 56, O-(4,4-Difluoropyrrolidin-2-yl)methyl, N—((S)-4-((3-chloro-4-fluorophenyl)carbamoyl)-7-fluoro-2,3-dihydro-1H-inden-1-yl) carbamate Hydrochloride] | 0.5 µM | 
20 | COC(=O)NC1CSc2c(C(=O)Nc3ccc(F)c(F)c3)ccc(F)c21 (stereo not shown) [Compound 57, O-Methyl, N-(7-((3,4-difluorophenyl)carbamoyl)-4-fluoro-2,3-dihydrobenzo[b]thiophen-3-yl) carbamate] |  | pEC50 [4]: < 4.60
21 | COC(=O)NC1CSc2c(C(=O)Nc3ccc(F)c(Cl)c3)ccc(F)c21 (stereo not shown) [Compound 58, O-Methyl, N-(7-((3-chloro-4-fluorophenyl)carbamoyl)-4-fluoro-2,3-dihydrobenzo[b]thiophen-3-yl) carbamate] |  | pEC50 [4]: 6.10
22 | COC(=O)NC1CSc2c(C(=O)Nc3ccc(F)c(Cl)c3)ccc(F)c21 (stereo not shown) [Compound 59, O-Methyl, N-(7-((3-chloro-4-fluorophenyl)carbamoyl)-4-fluoro-2,3-dihydrobenzo[b]thiophen-3-yl) carbamate] |  | pEC50 [4]: 4.92
23 | O=C(N[C@@H]1c2cccc(C(=O)Nc3ccc(F)c(F)c3)c2C[C@H]1O)OCc1ccccn1 [Compound 60, O-pyridin-2-ylmethyl, N-((1R,2R)-4-((3,4-difluorophenyl)carbamoyl)-2-hydroxy-2,3-dihydro-1H-inden-1-yl) carbamate] |  | pEC50 [3]: < 4.60
24 | CC(=O)N1CC(F)(F)CC1COC(=O)N[C@H]1CCc2c(C(=O)Nc3ccc(F)c(Cl)c3)ccc(F)c21 (stereo partly drawn) [Compound 61, O-(1-Acetyl-4,4-difluoropyrrolidin-2-yl)methyl, N—((S)-4-((3-chloro-4-fluorophenyl)carbamoyl)-7-fluoro-2,3-dihydro-1H-inden-1-yl) carbamate] | 0.4 µM | 
25 | O=C(N[C@H]1CCc2c(C(=O)Nc3ccc(F)c(Cl)c3)ccc(F)c21)OCC1CCN(CC(F)(F)F)CC1 [Compound 62, O-(1-(2,2,2-Trifluoroethyl)piperidin-4-yl)methyl, N—(S)-(4-((3-chloro-4-fluorophenyl)carbamoyl)-7-fluoro-2,3-dihydro-1H-inden-1-yl) carbamate] | 1.8 µM | 
26 | O=C(NC1CSc2c(C(=O)Nc3ccc(F)c(F)c3)ccc(F)c21)OCc1ccccn1 (stereo not shown) [Compound 63, O-Pyridin-2-ylmethyl, N-(7-((3,4-difluorophenyl)carbamoyl)-4-fluoro-2,3-dihydrobenzo[b]thiophen-3-yl) carbamate] |  | pEC50 [3]: < 4.60
27 | O=C(NC1CSc2c(C(=O)Nc3ccc(F)c(F)c3)ccc(F)c21)OCc1ccccn1 (stereo not shown) [Compound 64, O-Pyridin-2-ylmethyl, N-(7-((3,4-difluorophenyl)carbamoyl)-4-fluoro-2,3-dihydrobenzo[b]thiophen-3-yl) carbamate] |  | pEC50 [3]: 6.08
28 | O=C(NC1CSc2c(C(=O)Nc3ccc(F)c(Cl)c3)ccc(F)c21)OCc1ccccn1 (stereo not shown) [Compound 65, O-Pyridin-2-ylmethyl, N-(7-((3-chloro-4-fluorophenyl)carbamoyl)-4-fluoro-2,3-dihydrobenzo[b]thiophen-3-yl) carbamate] |  | pEC50 [3]: < 4.60
